IC50 data for 19 compounds are collected here from patent publication US20260132132A1, “3A,4,5,6-TETRAHYDRO-1 H-PYRAZOLO[3,4-C]PYRIDIN-7(7AH)-ONE DERIVATIVES AS FACTOR XIIA INHIBITORS” (KALVISTA PHARMACEUTICALS LIMITED, priority 2022, published 2026).

One experiment has as its target FXa (Homo sapiens, UniProt P00742). The experiment is described as follows: Related protease inhibition: FXa, fluorogenic substrate. It is filed as biochemical. Particulars: fluorogenic substrate at Km, 25° C.; H1-H3 = % activity at 40 μM. Here is the method: Human serine protease enzyme Plasma Kallikrein, KLK1, FXa, Plasmin, Thrombin and Trypsin were assayed for enzymatic activity using an appropriate fluorogenic substrate at Km concentration, FXIa at fixed substrate concentration of 100 μM and various concentrations of the test compound.

In experiment [1] the target is T1, Human Factor XIIa (hFXIIa) (Homo sapiens, UniProt P00748).
T1 construct: purchased Enzyme Research Laboratories
T1 sequence (P00748 373-615 limits assumed): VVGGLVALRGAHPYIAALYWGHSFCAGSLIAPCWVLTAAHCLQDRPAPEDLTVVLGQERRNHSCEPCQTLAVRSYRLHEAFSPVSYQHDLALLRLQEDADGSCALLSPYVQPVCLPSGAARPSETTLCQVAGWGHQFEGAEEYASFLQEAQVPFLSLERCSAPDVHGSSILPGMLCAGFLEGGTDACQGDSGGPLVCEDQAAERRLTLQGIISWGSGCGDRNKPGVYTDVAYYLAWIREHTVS
T1 sequence (P00748 20-372 partner limits assumed): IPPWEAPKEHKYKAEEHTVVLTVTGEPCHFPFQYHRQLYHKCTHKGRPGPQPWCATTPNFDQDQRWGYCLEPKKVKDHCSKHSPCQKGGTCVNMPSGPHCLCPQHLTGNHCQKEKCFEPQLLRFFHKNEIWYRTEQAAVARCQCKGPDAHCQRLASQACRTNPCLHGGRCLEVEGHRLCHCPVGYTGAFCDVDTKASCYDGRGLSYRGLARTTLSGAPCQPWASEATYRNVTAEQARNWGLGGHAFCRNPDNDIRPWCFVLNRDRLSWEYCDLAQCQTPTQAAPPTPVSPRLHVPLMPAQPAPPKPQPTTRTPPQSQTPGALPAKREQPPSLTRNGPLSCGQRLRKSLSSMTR
In words: Determination of Human Factor XIIa (hFXIIa) inhibition, fluorogenic substrate IC50 assay. The settings on record: fluorogenic substrate H-DPro-Phe-Arg-AFC at Km, 25° C., read-out: Human FXIIa IC50. The class given is biochemical. Here is the method: Determination of Human Factor XIIa (hFXIIa) inhibition
The Km for the cleavage of the substrate by hFXIIa was determined by standard transformation of the Michaelis-Menten equation, with subsequent inhibition assays performed at substrate Km concentration.

Where only a bound is given, the exact number is not on record here.

Chain of FXa (P00742 235-488 limits assumed): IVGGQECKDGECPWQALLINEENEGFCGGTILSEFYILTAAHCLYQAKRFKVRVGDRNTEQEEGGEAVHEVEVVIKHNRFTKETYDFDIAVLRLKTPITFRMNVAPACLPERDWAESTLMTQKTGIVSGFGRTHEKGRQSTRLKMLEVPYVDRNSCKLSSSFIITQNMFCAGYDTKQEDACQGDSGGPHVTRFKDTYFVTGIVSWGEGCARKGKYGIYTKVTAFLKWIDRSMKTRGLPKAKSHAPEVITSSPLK
Chain of FXa (P00742 41-179 partner limits assumed): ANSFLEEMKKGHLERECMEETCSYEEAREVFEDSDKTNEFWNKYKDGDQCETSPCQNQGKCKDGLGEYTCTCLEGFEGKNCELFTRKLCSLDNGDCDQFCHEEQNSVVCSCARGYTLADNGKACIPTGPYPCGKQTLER

Regarding `CN1CCc2ccc(N3CCc4c(C(=O)NCC5CC5)nn(-c5cccc(C#N)c5)c4C3=O)cc2C1=O` [Example 2005, 1-(3-cyanophenyl)-N-(cyclopropylmethyl)-6-(2-methyl-1-oxo-1,2,3,4-tetrahydroisoquinolin-7-yl)-7-oxo-4,5,6,7-tetrahydro-1H-pyrazolo[3,4-c]pyridine-3-carboxamide], the IC50 (as a rule, the concentration that gives 50% inhibition) against FXa is > 40000 nM; in experiment [1] it was 300 to 1000 nM.

As for `CN1CCc2ccc(N3CCc4c(C(=O)NCc5cc[nH]n5)nn(-c5cccc(Cl)c5)c4C3=O)cc2C1=O` [Example 1245, N-((1H-pyrazol-3-yl)methyl)-1-(3-chlorophenyl)-6-(2-methyl-1-oxo-1,2,3,4-tetrahydroisoquinolin-7-yl)-7-oxo-4,5,6,7-tetrahydro-1H-pyrazolo[3,4-c]pyridine-3-carboxamide], the IC50 is > 40000 nM on FXa and 100 to 300 nM in experiment [1].

With `COc1cc(N2CCc3c(C(=O)NCC4CC4)nn(-c4cccc(Cl)c4)c3C2=O)cc2c1CCN(CCO)C2` [Example 1226, 1-(3-chlorophenyl)-N-(cyclopropylmethyl)-6-(2-(2-hydroxyethyl)-5-methoxy-1,2,3,4-tetrahydroisoquinolin-7-yl)-7-oxo-4,5,6,7-tetrahydro-1H-pyrazolo[3,4-c]pyridine-3-carboxamide], the IC50 at FXa is > 40000 nM; in experiment [1], 100 to 300 nM.

As for `CN1CCc2ccc(N3CCc4c(C(=O)NCC5CC5)nn(-c5cc(Cl)cc(C#N)c5)c4C3=O)cc2C1=O` [Example 2013, 1-(3-chloro-5-cyanophenyl)-N-(cyclopropylmethyl)-6-(2-methyl-1-oxo-1,2,3,4-tetrahydroisoquinolin-7-yl)-7-oxo-4,5,6,7-tetrahydro-1H-pyrazolo[3,4-c]pyridine-3-carboxamide], the half-maximal inhibitory concentration (IC50) on FXa is > 40000 nM; in experiment [1], 3000 to 10000 nM.

Regarding `CN1CCc2ccc(N3CCc4c(C(=O)N5CCCO5)nn(-c5cccc(Cl)c5)c4C3=O)cc2C1=O` [Example 1343, 7-(1-(3-chlorophenyl)-3-(isoxazolidine-2-carbonyl)-7-oxo-1,4,5,7-tetrahydro-6H-pyrazolo[3,4-c]pyridin-6-yl)-2-methyl-3,4-dihydroisoquinolin-1(2H)-one], the IC50 lay within 10000 to 40000 nM at FXa and 1000 to 3000 nM in experiment [1].

As to `Cc1cnnc(CNC(=O)c2nn(-c3cccc(Cl)c3)c3c2CCN(c2ccc4c(c2)C(=O)N(C)CC4)C3=O)c1` [Example 1282, 1-(3-chlorophenyl)-6-(2-methyl-1-oxo-1,2,3,4-tetrahydroisoquinolin-7-yl)-N-((5-methylpyridazin-3-yl)methyl)-7-oxo-4,5,6,7-tetrahydro-1H-pyrazolo[3,4-c]pyridine-3-carboxamide], the IC50 on FXa is > 40000 nM; in experiment [1] it was 300 to 1000 nM.

In the case of `CCCN1CCc2ccc(N3CCc4c(C(=O)NCc5cc(C)n(C)n5)nn(-c5cccc(Cl)c5)c4C3=O)cc2C1=O` [Example 1210, 1-(3-chlorophenyl)-N-((1,5-dimethyl-1H-pyrazol-3-yl)methyl)-7-oxo-6-(1-oxo-2-propyl-1,2,3,4-tetrahydroisoquinolin-7-yl)-4,5,6,7-tetrahydro-1H-pyrazolo[3,4-c]pyridine-3-carboxamide], the IC50 was > 40000 nM at FXa and 100 to 300 nM in experiment [1].

For the compound `CCN1Cc2cc(N3CCc4c(C(=O)NCC5CC5)nn(-c5cccc(Cl)c5)c4C3=O)ccc2[C@@H](C)C1` [Example 1153, (R)-1-(3-chlorophenyl)-N-(cyclopropylmethyl)-6-(2-ethyl-4-methyl-1,2,3,4-tetrahydroisoquinolin-7-yl)-7-oxo-4,5,6,7-tetrahydro-1H-pyrazolo[3,4-c]pyridine-3-carboxamide], the IC50 lay within 10000 to 40000 nM at FXa and 300 to 1000 nM in experiment [1].

Regarding `CO[C@H]1CCOC[C@H]1NC(=O)c1nn(-c2cccc(Cl)c2)c2c1CCN(c1ccc3c(c1)C(=O)N(C)CC3)C2=O` [Example 1265, 1-(3-chlorophenyl)-N-((3R,4S)-4-methoxytetrahydro-2H-pyran-3-yl)-6-(2-methyl-1-oxo-1,2,3,4-tetrahydroisoquinolin-7-yl)-7-oxo-4,5,6,7-tetrahydro-1H-pyrazolo[3,4-c]pyridine-3-carboxamide], the IC50 against FXa was > 40000 nM; in experiment [1], 300 to 1000 nM.

For the compound `Cc1cc(CNC(=O)c2nn(-c3cccc(Cl)c3)c3c2CCN(c2ccc4c(c2)C(=O)N(C)CCO4)C3=O)nn1C` [Example 1319, 1-(3-chlorophenyl)-N-((1,5-dimethyl-1H-pyrazol-3-yl)methyl)-6-(4-methyl-5-oxo-2,3,4,5-tetrahydrobenzo[f][1,4]oxazepin-7-yl)-7-oxo-4,5,6,7-tetrahydro-1H-pyrazolo[3,4-c]pyridine-3-carboxamide], the IC50 at FXa is 1000 to 3000 nM; in experiment [1] it was 10 to 100 nM.

Take `CCNC(=O)c1nn(-c2cccc(Cl)c2)c2c1CCN(c1cccc(CN3CCCCC3)c1)C2=O` [Example 1011, 1-(3-chlorophenyl)-N-ethyl-7-oxo-6-(3-(piperidin-1-ylmethyl)phenyl)-4,5,6,7-tetrahydro-1H-pyrazolo[3,4-c]pyridine-3-carboxamide]: the IC50 was > 100000 nM at FXa and 3000 to 10000 nM in experiment [1].

For `O=C(O)CN1CCc2ccc(N3CCc4c(C(=O)NCC5CC5)nn(-c5cccc(Cl)c5)c4C3=O)cc2C1=O` [Example 1330, 2-(7-(1-(3-chlorophenyl)-3-((cyclopropylmethyl)carbamoyl)-7-oxo-1,4,5,7-tetrahydro-6H-pyrazolo[3,4-c]pyridin-6-yl)-1-oxo-3,4-dihydroisoquinolin-2(1H)-yl)acetic acid], the IC50 at FXa was > 40000 nM; in experiment [1] it was 1000 to 3000 nM.

Regarding `CN1CCc2ccc(N3CCc4c(C(=O)NC5(C)CC5)nn(-c5cccc(Cl)c5)c4C3=O)cc2C1=O` [Example 1359, 1-(3-chlorophenyl)-6-(2-methyl-1-oxo-1,2,3,4-tetrahydroisoquinolin-7-yl)-N-(1-methylcyclopropyl)-7-oxo-4,5,6,7-tetrahydro-1H-pyrazolo[3,4-c]pyridine-3-carboxamide], the IC50 was > 40000 nM against FXa and 300 to 1000 nM in experiment [1].

Regarding `Cc1nc2c(C(=O)NCC3CC3)nn(-c3cccc(Cl)c3)c2c(=O)n1-c1ccc2c(c1)C(=O)N(CCO)CC2` [Example 3016, 1-(3-chlorophenyl)-N-(cyclopropylmethyl)-6-(2-(2-hydroxyethyl)-1-oxo-1,2,3,4-tetrahydroisoquinolin-7-yl)-5-methyl-7-oxo-6,7-dihydro-1H-pyrazolo[4,3-d]pyrimidine-3-carboxamide], the IC50 at FXa was > 40000 nM; in experiment [1], 100 to 300 nM.

On to `Cc1ncccc1CNC(=O)c1nn(-c2cccc(Cl)c2)c2c1CCN(c1ccc3c(c1)CN(CCO)CC3)C2=O` [Example 1111, 1-(3-chlorophenyl)-6-(2-(2-hydroxyethyl)-1,2,3,4-tetrahydroisoquinolin-7-yl)-N-((2-methylpyridin-3-yl)methyl)-7-oxo-4,5,6,7-tetrahydro-1H-pyrazolo[3,4-c]pyridine-3-carboxamide], for which the IC50 lay in the range of 10000 to 40000 nM against FXa and 10 to 100 nM in experiment [1].

In the case of `O=C(NCc1ccn(C2CC2)n1)c1nn(-c2cccc(Cl)c2)c2c1CCN(c1ccc3c(c1)C(=O)N(CCO)CC3)C2=O` [Example 1355, 1-(3-chlorophenyl)-N-((1-cyclopropyl-1H-pyrazol-3-yl)methyl)-6-(2-(2-hydroxyethyl)-1-oxo-1,2,3,4-tetrahydroisoquinolin-7-yl)-7-oxo-4,5,6,7-tetrahydro-1H-pyrazolo[3,4-c]pyridine-3-carboxamide], the IC50 against FXa was > 40000 nM; in experiment [1] it was 100 to 300 nM.

With `COc1cccnc1CNC(=O)c1nn(-c2cccc(Cl)c2)c2c1CCN(c1ccc3c(c1)C(=O)N(C)CC3)C2=O` [Example 1233, 1-(3-chlorophenyl)-N-((3-methoxypyridin-2-yl)methyl)-6-(2-methyl-1-oxo-1,2,3,4-tetrahydroisoquinolin-7-yl)-7-oxo-4,5,6,7-tetrahydro-1H-pyrazolo[3,4-c]pyridine-3-carboxamide], the values for the IC50 (against FXa; in experiment [1]) were > 40000 nM and 100 to 300 nM, respectively.

For the compound `Cc1nc(CNC(=O)c2nn(-c3cccc(Cl)c3)c3c2CCN(c2ccc4c(c2)C(=O)N(C)CC4)C3=O)n[nH]1` [Example 1247, 1-(3-chlorophenyl)-6-(2-methyl-1-oxo-1,2,3,4-tetrahydroisoquinolin-7-yl)-N-((5-methyl-1H-1,2,4-triazol-3-yl)methyl)-7-oxo-4,5,6,7-tetrahydro-1H-pyrazolo[3,4-c]pyridine-3-carboxamide], the figures for the IC50 (on FXa; in experiment [1]) were > 40000 nM and 100 to 300 nM, respectively.

`CN(Cc1ccccc1)C(=O)c1nn(-c2cccc(Cl)c2)c2c1CCN(c1cccc(CN3CCCCC3)c1)C2=O` [Example 1004, N-benzyl-1-(3-chlorophenyl)-N-methyl-7-oxo-6-(3-(piperidin-1-ylmethyl)phenyl)-4,5,6,7-tetrahydro-1H-pyrazolo[3,4-c]pyridine-3-carboxamide]: the IC50 was > 40000 nM on FXa and 1000 to 3000 nM in experiment [1].
